Data reported in patent EP0408668B1 (MASSACHUSETTS INSTITUTE OF TECHNOLOGY, priority 1988, dated 1990).

What was measured:
[1] = system: neuroblastoma/glioma cells (NG 108-15); test: Formation of tritiated CDP-choline from tritiated choline in neuroblastoma/glioma cells; format: cell-based; details: NG 108-15 cells, cytidine 25 µM, 90 minutes
Text: CDP-choline is the immediate precursor for the phosphatidylcholine in membranes of neurons and other cells and its formation controls the production of phosphatidylcholine.

[2] = system: brain levels of cytidine and cytidine-(5')-diphosphate-choline (CDP-choline); details: rats, cytidine 1 g/kg ip, sacrificed after 1 hour, vs placebo

## Nc1ccn([C@@H]2O[C@H](CO)[C@@H](O)[C@H]2O)c(=O)n1 [cytidine]
[1]
  newly-formed CDP-choline in cells incubated with supplemental cytidine vs without cytidine: almost twice as much
[2]
  brain CDP-choline levels rose by: about 50%
